Test systems include A498 renal; ACHN renal; HCT-116 colon; IGROV1 ovarian; MDA-MB-231 breast; MDA-MB-435; MDA-N; NCI/ADR-RES ovarian; OVCAR-4 ovarian; PC-3 prostate; RPMI-8226 leukemia; RXF 393 renal; SF-295 CNS; SK-MEL-5 melanoma; UO-31 renal.
Assay in all cases: growth of human tumour cells (NCI), 48 h

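In this assay, cells in 96-well plates receive the compound at five concentrations for 48 hours. Endpoints are linearly interpolated between the surrounding concentrations. TGI: concentration producing complete growth inhibition.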 Where a SMILES comes first, the peptide text is derived from it. [ ]: non-standard residue; d: D form. ΔPro = O=C(O)[CH]1C=CCN1

As to `C=C1N(S(=O)(=O)c2ccc(C)cc2)C(=O)OCC12CCCC2`, the TGI in the assay with A498 renal, in the assay on ACHN renal, in the assay on HCT-116 colon, with IGROV1 ovarian, in the assay with MDA-MB-231 breast and with MDA-MB-435 was above 100 µM in each case. Besides, the TGI with MDA-N, with NCI/ADR-RES ovarian, in the assay with OVCAR-4 ovarian, in the assay with PC-3 prostate, in the assay with RPMI-8226 leukemia and with RXF 393 renal was above 100 µM each time. The TGI in the assay on SF-295 CNS is above 100 µM; with SK-MEL-5 melanoma it was 94.6 µM; in the assay on UO-31 renal, above 100 µM.
Consider `C=C(COCO)C(C)=O`, for which the TGI came out at 49 µM with A498 renal; 29.2 µM with ACHN renal; 26.7 µM with HCT-116 colon; 35.9 µM in the assay with IGROV1 ovarian; 33.6 µM with MDA-MB-231 breast; 28.3 µM in the assay with MDA-MB-435. The TGI in the assay with MDA-N worked out at 33.5 µM; in the assay on NCI/ADR-RES ovarian, 51.5 µM; in the assay on OVCAR-4 ovarian it was 37.2 µM; in the assay on PC-3 prostate, 34.8 µM; in the assay on RPMI-8226 leukemia, 5.64 µM; in the assay with RXF 393 renal, 29.4 µM. For the same compound, the TGI is above 100 µM with SF-295 CNS, 31.5 µM in the assay on SK-MEL-5 melanoma and 25.7 µM in the assay with UO-31 renal.
`CCOC(=O)c1ncn(CCc2ccc(Cl)cc2)c1C`: the TGI with A498 renal, in the assay on ACHN renal, in the assay with HCT-116 colon, with IGROV1 ovarian, with MDA-MB-231 breast and in the assay on MDA-MB-435 was above 100 µM in each case. Besides, the TGI with MDA-N, in the assay on NCI/ADR-RES ovarian, in the assay on OVCAR-4 ovarian, in the assay on PC-3 prostate, in the assay with RPMI-8226 leukemia and in the assay on RXF 393 renal was above 100 µM throughout. The TGI in the assay with SF-295 CNS, in the assay with SK-MEL-5 melanoma and in the assay on UO-31 renal was above 100 µM each time.
Regarding `C=C1c2nc3ccccc3n2C=C(c2ccccc2)N1c1ccc(Cl)cc1`, the TGI with A498 renal is above 77 µM; with ACHN renal, 38.4 µM; in the assay with HCT-116 colon, above 100 µM; in the assay with IGROV1 ovarian, above 89.5 µM; in the assay on MDA-MB-231 breast, 51.8 µM; in the assay with MDA-MB-435, above 100 µM. Moreover, the TGI is above 100 µM in the assay with MDA-N; above 77.7 µM in the assay on NCI/ADR-RES ovarian; 61.6 µM in the assay with OVCAR-4 ovarian; above 100 µM in the assay with PC-3 prostate; above 85 µM in the assay with RPMI-8226 leukemia; above 67.6 µM in the assay on RXF 393 renal. For the same compound, the TGI in the assay on SF-295 CNS was 49.2 µM; in the assay with SK-MEL-5 melanoma, above 100 µM; with UO-31 renal, above 100 µM.
For the compound `O=C(O)C1C=CCN1C(=O)C1C=CCN1C(=O)C1C=CCN1` (stereo not given) (H-[ΔPro]-[ΔPro]-[ΔPro]-OH; configuration not given here), the TGI in the assay on A498 renal, with ACHN renal, in the assay with HCT-116 colon, in the assay on IGROV1 ovarian, with MDA-MB-231 breast and in the assay with MDA-MB-435 was above 100 µM each time. Also, the TGI in the assay on MDA-N, with NCI/ADR-RES ovarian, in the assay on OVCAR-4 ovarian, in the assay with PC-3 prostate, in the assay on RPMI-8226 leukemia and in the assay on RXF 393 renal was above 100 µM each time. Further, the TGI with SF-295 CNS, in the assay on SK-MEL-5 melanoma and in the assay with UO-31 renal was above 100 µM throughout.

These data come from PubChem BioAssay (NCI).
